This is an account of results in US6699686B1, “Modified nuclear glucocorticoid receptor, fusion protein, and DNA fragments coding for said receptor and said fusion protein” (Association pour le Development de la Recherche en …, priority 1996, dated 2004).

Test [1] has as its target T1, Cre-LBD[GR(I747/T)] (Homo sapiens, UniProt P04150, I747T).
T1 construct: the region containing the mutated LBD of HG1 [aa 500-777]; Cre recombinase aa 1-343 (bacteriophage P1); F region of the human estrogen receptor (aa 553-595); expressed in transfected cells
T1 sequence (P04150 500-777 I747T): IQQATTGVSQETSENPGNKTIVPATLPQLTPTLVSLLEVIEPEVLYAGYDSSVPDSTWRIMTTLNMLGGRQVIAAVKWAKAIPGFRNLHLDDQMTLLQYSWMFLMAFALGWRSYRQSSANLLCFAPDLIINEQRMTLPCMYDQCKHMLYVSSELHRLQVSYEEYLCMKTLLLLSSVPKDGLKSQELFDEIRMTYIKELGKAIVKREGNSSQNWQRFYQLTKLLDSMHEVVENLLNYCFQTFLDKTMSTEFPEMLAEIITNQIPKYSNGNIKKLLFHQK
Briefly: PCR test of excision between loxP sites after transient transfection of pCre-LBD[GR(I747/T)] in RXRα+/−(LNL) F9 cells. Type of test: cell-based. Conditions: ligand 10^−6 M, 72 hours, murine F9 RXRα+/−(LNL) cells. The protocol:
[optionally cotransfected with 5 μg of the vector pRXRα^(LNL) for the HeLa cells] with the aid of an electroporator (Bio-Rad gene pulser), set at 200 V and 960 μF. The cells were then inoculated at 10^6 cells per 100 mm dish and treated, if necessary, with ligands.
(§1) The DNA amplifications were carried out using the “Polymerase Chain Reaction” (PCR) technique according to the protocol described by Chen and Evans (60). The primers used are: SB211 and PZ105, having respectively as nucleotide sequence 5′-[…]-3′ (SEQ ID NO: 10) and 5′-[…]-3′ (SEQ ID NO: 11). After denaturation for 8 min at 94° C., 2.5 units of Taq polymerase are added. The amplification is carried out by performing 35 cycles (30 sec. at 94° C., 30 sec. at 50° C.) followed by one cycle (30 sec. at 94° C., 30 sec. at 50° C., 5 min at 72° C.), the product of which is stored at 4° C.
(§2) The products of the reactions were separated on polyacrylamide (10%) or agarose (2.5%) gel. The DNA was visualized by UV followed by ethidium bromide staining, or by Southern blotting (42).
The products of the reaction were separated on acrylamide gel and stained with ethidium bromide.

Test [2] deals with T1, Cre-LBD[GR(I747/T)]. As to the kind of experiment: PCR analysis of recombinase activity in RXRα+/−(LNL):Cre-GR(I747/T) line constitutively expressing the chimeric protein. Type of test: cell-based. The following applies: for recombinase activity (191 bp PCR fragment of recombinant allele): ligand 10^−6 M, 72 hours, expression cassette integrated into the genome; for recombinase activity: ligand concentration ranging from 10^−9 to 10^−6 M. As for the experimental part: The resistant clones were obtained according to the procedure described by Metzger et al. (28).
as §1, §2
The amplified DNA was separated on acrylamide gel and stained with ethidium bromide. Lanes 1, 2, 3 and 4 contain respectively the PCR products produced with DNA extracted from wild-type (WT) F9 cells, RXRα^+/−(LNL), RXRα^+/−(L) cells and C2RXRα^+(L)/−(L) cells (73). Lane 8 contains a size marker (1 kb ladder; GibcoBRL).
The amplified DNA was separated on agarose gel and analyzed according to the Southern technique. The amplified fragments corresponding to the wild-type and recombinant alleles were detected by hybridization with the aid of the synthetic oligonucleotide (5′-[…]-3′) (SEQ ID NO: 12), radiolabeled at the 5′ end with T4 polynucleotide kinase. The signal was visualited and quantified with the aid of a “phosphoimager” (Fujix bas2000).
The recombinant allele was detected according to the procedure described in FIG. 8. The amplified DNA was separated on agarose gel and analyzed according to the Southern technique. The amplified fragments corresponding to the recombinant allele were detected by autoradiography following hybridization with the synthetic oligonucleotide 5′-[…]-3′ (SEQ ID NO: 13), (containing a loxP site) radiolabeled with Phosphorus^32 at the 5′ end by T4 polynucleotide kinase.
The recombinase activity was tested following a treatment of these cells with Dex (10^−6 M) for 72 hours.

Regarding `C[C@]12CCC(=O)C=C1CC[C@@H]1[C@@H]2[C@@H](O)C[C@@]2(C)[C@H]1CC[C@]2(O)C(=O)CO` [Cortisol, cortisol], the “excision of sequences between loxP sites (191 bp PCR fragment of recombinant allele)” value in test [1] is “no fragment of this size is observed”. In test [2], the “recombinase activity (191 bp PCR fragment of recombinant allele)” value was “inactive” and the “recombinase activity” value was “No recombinase activity”. On to `C[C@]12C[C@H](O)[C@H]3[C@@H](CCC4=CC(=O)CC[C@@]43C)[C@@H]1CC[C@@H]2C(=O)CO` [Corticosterone, corticosterone], for which the “recombinase activity” value in test [2] is “No recombinase activity”.

`C[C@]12CCC(=O)C=C1CC[C@@H]1[C@@H]2[C@@H](O)C[C@]2(C=O)[C@@H](C(=O)CO)CC[C@@H]12` [Aldosterone, aldosterone]: the “recombinase activity” value in test [2] is “No recombinase activity”. On to `C[C@@H]1C[C@H]2[C@@H]3CCC4=CC(=O)C=C[C@]4(C)[C@@]3(F)[C@@H](O)C[C@]2(C)[C@@]1(O)C(=O)CO` [Dexamethasone, dexamethasone], for which, in test [2] (listed as Dex), the “recombinase activity (191 bp PCR fragment of recombinant allele)” value was “active”.
